Counter-ions that a name gives are not always drawn. Like-named read-outs stand apart in the source and are kept apart here. Marks after values point to notes of the source that are not given here. Where a SMILES comes first, the peptide text is derived from it. Bridges are numbered along the chain shown (N, C = ends). [ ]: non-standard residue; d: D form. The star is where a group is joined. ξ: configuration not given here. Thr(3ξ) = CC(O)[C@H](N)C(=O)O; Dab = NCC[C@H](N)C(=O)O; X1 = CCCCCCC(O)C(=O)*; GABA = NCCCC(=O)O
How the values were obtained:
[1] = tested on: E. coli clinical isolates and resistant strains; format: cell-based; details: clinical isolates and resistant strains
Description: (§1) The in vitro antibacterial activities of the compounds of examples 2 and 6 were evaluated against a panel of […] Gram-negative bacterial isolates alongside Colistin. The panel consisted of 100 clinical isolates of each of A. baumannii, E. coli, K. pneumoniae and P. aeruginosa. The panel represented the current epidemiology in Europe and the USA and included a number of relevant strains with defined resistant phenotypes to current clinically-used antibacterial agents. These resistant strains included 20 A. baumannii, 22 E. coli, 25 K. pneumoniae and 20 P. aeruginosa strains.
(§2) All compounds were tested up to a maximum concentration of 64 μg/mL with the exception of colistin, which was evaluated up to a maximum concentration of 16 μg/mL.

[2] = tested on: A. baumannii clinical isolates and resistant strains; format: cell-based; details: clinical isolates and resistant strains
Description: as §1, §2

[3] = tested on: P. aeruginosa clinical isolates and resistant strains; format: cell-based; details: clinical isolates and resistant strains
Description: as §1, §2

[4] = tested on: K. pneumoniae clinical isolates and resistant strains; format: cell-based; details: clinical isolates and resistant strains
Description: as §1, §2

HK-2 cell line = details: 24 h incubation, resazurin reduction; Table 7
Description: The renal cell toxicity of the compounds was assessed in an in vitro assay using the HK-2 cell line, an immortalized proximal tubule cell line derived from a normal human kidney. The endpoint to describe the toxicity of the compounds was the reduction of resazurin correlating with the metabolic activity of the cells.
Cells were cultured in 150 cm^2 flasks in 25 mL supplemented KSF (with 5 ng/mL EGF and 50 μg/mL BPE). Cells were maintained at 70% confluence with a maximum of 25 passages. Day 1: Media was removed and cells were washed with 10 ml DPBS. […] After 1 to 2 minutes incubation, 14 ml media was added to the flask to inactivate the trypsin. The cell suspension was transferred to a centrifuge tube and the cells pelleted at 1000 rpm for 6 minutes. The cell pellet was then resuspended in fresh media supplemented with EGF and BPE. […] 7500 cells were dispensed in each well in a volume of 160 μl and incubated at 37° C. for 24 h.
Day 2: Test compounds were prepared directly into the media. […] The microtiter plates were removed from the incubator and the media replaced with 100 μl of the dilutions of the compound solution. Every set of concentration was done in triplicate, and positive and negative controls were added to each plate. The plates were then incubated for 24 h at 37° C. with 5% CO2 in a humidified atmosphere.
Day 3: The reagent containing the resazurin (CellTiter-Blue, Promega) was diluted in PBS (1:4) and added at 20% (v/v) to each well. The plates were then incubated at 37° C. for 2 h before the fluorescent reduction product was detected.
Media only background values were subtracted before the data was analysed using GraphPad Prism. Compound concentration values were plotted as log values to enable a dose-response curve to be fitted and IC50 values determined (Table 7).
The renal cell toxicity of the additional example compounds was assessed in an in vitro assay using the HK-2 cell as described in the example above.

[5] = tested on: Escherichia coli isolate ATCC25922; format: in vivo; details: thigh
Description: Groups of 5 female specific-pathogen-free CD-1 mice weighing 22±2 g were used. The animals were made neutropenic by intraperitoneal administration of cyclophosphamide on days −4 (150 mg/kg) and −1 (100 mg/kg). […] Examples 2, 4, 5, 6, 7, 8, 10, 11 and polymyxin B were prepared in Normal Saline at 2 mg/mL and the solution was adjusted to pH 6-7 by addition of 0.1M H2SO4 or 4.2% NaHCO3 as required. Twenty-four hours after infection, the mice were euthanized humanely. The muscle of the right thigh of each animal was harvested, homogenized, serially diluted and plated on Brain Heart Infusion agar+0.5% charcoal (w/v) for CFU determination. Decrease of the total CFU of right thigh as compared to control counts at 24 hrs post-infection was determined for each dose group. […] The in vivo efficacy of the compound of Example 14 was evaluated in a mouse thigh infection model of E. coli. using the methods described in the examples above. The result is summarized in Table 5A in comparison with Polymyxin B.

Row | Compound | MIC50 Clinical isolates [1] [µg/mL] | MIC50 Resistant strains [1] [µg/mL] | MIC90 Clinical isolates [1] [µg/mL] | MIC90 Resistant strains [1] [µg/mL] | MIC Range Resistant strains [1] [µg/mL] | MIC50 Clinical isolates [2] [µg/mL] | MIC50 Resistant strains [2] [µg/mL] | MIC90 Clinical isolates [2] [µg/mL] | MIC90 Resistant strains [2] [µg/mL] | MIC Range Resistant strains [2] [µg/mL] | MIC50 Clinical isolates [3] [µg/mL] | MIC50 Resistant strains [3] [µg/mL] | MIC90 Clinical isolates [3] [µg/mL] | MIC90 Resistant strains [3] [µg/mL] | MIC Range Clinical isolates [3] [µg/mL] | MIC Range Resistant strains [3] [µg/mL] | MIC50 Clinical isolates [4] [µg/mL] | MIC50 Resistant strains [4] [µg/mL] | MIC90 Clinical isolates [4] [µg/mL] | MIC90 Resistant strains [4] [µg/mL] | other results
1 | CC(C)C[C@@H]1NC(=O)[C@@H](Cc2ccccc2)NC(=O)[C@H](CCN)NC(=O)[C@@H](NC(=O)[C@H](CCN)NC(=O)[C@@H](NC(=O)CCCN)[C@@H](C)O)CCNC(=O)[C@H]([C@@H](C)O)NC(=O)[C@H](CCN)NC(=O)[C@H](CCN)NC1=O [Example 6, 4-Aminobutanoyl Polymyxin B Nonapeptide, Sulphate Salt] (H-[GABA]T[Dab][Dab][Dab][dF]L[Dab][Dab]T; lactam 4-C) | 2 | 0.5 | 8 | 4 | 0.06 to 4 | 2 | 2 | 8 | 4 | 1 to 4 | 0.25 | 0.5 | 16 | 8 | 0.06 to 64 | 0.12 to 16 | >64 | >64 | >64 | >64 | IC50 HK-2 cells (HK-2 cell line): 154 µg/mL
2 | Polymyxin B [reference compound] |  |  |  |  |  |  |  |  |  |  |  |  |  |  |  |  |  |  |  |  | Mean log10 CFU reduction vs. control ([5]; neutropenic CD-1 mice, total daily dosage 3 mg/kg (1.5 mg/kg BID) subcutaneous, 24 h post-infection, Table 5): 2.5 ^a log10 CFU; Mean log10 CFU reduction vs. control ([5]; neutropenic CD-1 mice, total daily dosage 10 mg/kg (5 mg/kg BID) subcutaneous, 24 h post-infection, Table 5): 4.2 ^a log10 CFU; Mean log10 CFU reduction vs. control ([5]; neutropenic mice, total daily dosage 3 mg/kg, additional study, Table 5A): 3.75 log10 CFU; Mean log10 CFU reduction vs. control ([5]; neutropenic mice, total daily dosage 10 mg/kg, additional study, Table 5A): 4.87 log10 CFU; IC50 HK-2 cells (HK-2 cell line): 11^b μg/mL
3 | CCCCCCC(O)C(=O)N[C@H](C(=O)N[C@@H](CCN)C(=O)N[C@H]1CCNC(=O)[C@H](C(C)O)NC(=O)[C@H](CCN)NC(=O)[C@H](CCN)NC(=O)[C@H](CC(C)C)NC(=O)[C@@H](Cc2ccccc2)NC(=O)[C@H](CCN)NC1=O)C(C)O (stereo partly drawn) [Example 2, [2(R,S)-2-Hydroxyoctanoyl] Polymyxin B Nonapeptide, Sulphate Salt] (X1-[Thr(3ξ)][Dab][Dab][Dab][dF]L[Dab][Dab][Thr(3ξ)]; lactam 3-C) | 2 | 1 | 4 | 2 | 0.5 to 4 | 4 | 4 | 8 | 4 | 2 to 4 | 2 | 2 | 4 | 4 | 1 to 8 | 1 to 4 | 8 | 8 | 32 | 32 | MIC Range Clinical isolates [1]: 1 to 16 µg/mL; MIC Range Clinical isolates [2]: 1 to 32 µg/mL
